The source of these data is patent publication US20130039928A1, “COMPOSITIONS AND METHODS FOR REVERSING CORTICOSTEROID RESISTANCE OR TREATING RESPIRATORY INFECTIONS” (priority 2010, published 2013).

The subject of test [1] is HDAC2. The conditions noted are these: CSC-exposed PMs. On the procedure: (§1) Mice (C57BL/6 strain, 8-10 weeks old) were used for the studies. Exposure to CS (1 month) was carried out as described previously (Malhotra, D., et al., Am J Respir Crit Care Med 178, 592-604 (2008)). Residential peritoneal macrophages (PMs) isolation was carried out as described previously (Singh, A., et al., PLoS Med 3, e420 (2006)). Alveolar macrophages from mouse were isolated from bronchoalveolar lavage (BAL) fluid (Crimi, E., et al., Free Radic Biol Med 40, 398-406 (2006)).
For inducing corticosteroid resistance, PMs were exposed to cigarette smoke condensate (CSC, 100 μg/ml; Murty Pharmaceuticals, Lexington, Ky.) for 16 h. Exposure to S-nitrosoglutathione (GSNO, 10 μM) was limited to 4 h. […] For assessing corticosteroid responsiveness, macrophages were incubated with dexamethasone (1 μM, Sigma) for 1 h followed by LPS (100 ng/ml, Sigma) for additional 4 h.

The test system of test [2] is HDAC2. As for the experimental part:
Whether sulforaphane increase HDAC2 activity in lungs of cigarette smoke exposed mice was determined.
as §1
HDAC activity was measured using a fluorescent derivative of ε-acetyl-lysine from Enzo life sciences (Farmingdale, N.Y.) according to the manufacturer's recommendations. HDAC2 was immunoprecipitated for analysis of enzymatic activity.

Test [3] deals with nontypeable Haemophilus influenzae. As for the experimental part:
Human alveolar macrophages were purified from individual BAL samples by centrifugation and seeded onto 6-well tissue culture plates. After incubation for 2 h, non-adherent cells were removed and the adherent cells were incubated with R, S-sulforaphane (5 μM; LKT Laboratories, Inc., St. Paul, Minn.) and or DMSO in RPMI 1640 culture medium with 10% FBS and 1% penicillin-streptomycin (Invitrogen, Carlsbad, Calif.). After 16-20 h, adherent cells were scraped, suspended in RPMI 1640 culture media and plated onto 96-well tissue culture plates for bacterial phagocytosis and clearance assays. […] For MARCO antibody-depletion, alveolar macrophages were incubated with human anti-MARCO antibody (1 μg/ml; (Hycult, Uden, The Netherlands) for 4 hours prior to bacterial challenge. […]
After treatment, macrophages (10^5 cells) were incubated with bacteria (PA or NTHI) for 4 h. […] The number of bacterial colonies was counted after 24 h.

A further test has as its system elastase. The conditions noted are these: alveolar macrophages treated with or without sulforaphane.
For a further test, the system named is MARCO. As for the experimental part: (§2) Human alveolar macrophages were purified from individual BAL samples by centrifugation and seeded onto 6-well tissue culture plates. After incubation for 2 h, non-adherent cells were removed and the adherent cells were incubated with R, S-sulforaphane (5 μM; LKT Laboratories, Inc., St. Paul, Minn.) and or DMSO in RPMI 1640 culture medium with 10% FBS and 1% penicillin-streptomycin (Invitrogen, Carlsbad, Calif.). After 16-20 h, adherent cells were scraped, suspended in RPMI 1640 culture media and plated onto 96-well tissue culture plates for bacterial phagocytosis and clearance assays. […] For MARCO antibody-depletion, alveolar macrophages were incubated with human anti-MARCO antibody (1 μg/ml; (Hycult, Uden, The Netherlands) for 4 hours prior to bacterial challenge.
(§3) GAPDH was used for normalization.

A further test concerns Nrf2. The conditions noted are these: COPD alveolar macrophages. On the procedure: as §2, §3
Test [4] relates to secretory leukocyte protease inhibitor (SLPI). The conditions noted are these: alveolar macrophages of patients with COPD, treated with or without sulforaphane. As for the experimental part: as §2
The subject of the next test is Pseudomonas aeruginosa. The conditions noted are these: alveolar macrophages from mice exposed to CS, ex vivo. As for the experimental part:
After treatment, macrophages (10^5 cells) were incubated with bacteria (PA or NTHI) for 4 h. Subsequently, 100 μL of cell free culture medium was aseptically plated and cultured on tryptose blood and or chocolate agar plates at 37° C. The number of bacterial colonies was counted after 24 h.
Bacterial phagocytosis was quantified using a flow cytometry analysis.
C57BL/6J mice were housed under controlled conditions for temperature and humidity, using a 12-hour light/dark cycle. At 8 weeks of age, mice were exposed to CS for (2.5 h/day for 5 days/week) for 1 week or 6 months using a machine that produces cigarette smoke (TE-10, Teague Enterprises) and reference cigarettes (2R4F) with a total suspended particle concentration of 250 mg/m^3 as previously described (T. E. Sussan et al., Proc Natl Acad Sci USA, (Dec. 22, 2008)). Following exposure to CS, mice were inoculated with PA or NTHI at a dose of 10^3 CFU in 50 μl of PBS intranasally. For sulforaphane administration (0.5 mg/mouse of R, S-sulforaphane in PBS), a nebulizer (Aerogen, Inc., Galway, Ireland) designed specifically for small animals was used.

Take `C[S+]([O-])CCCCN=C=S` (centres unmarked) [sulforaphane]: the “levels of SNO-HDAC2” value with HDAC2 [1] is given as “significant reduction in the levels of SNO-HDAC2”. In the test with HDAC2 [2] (CS-exposed mice), the “levels of SNO-HDAC2 in lungs” value is “reduced the levels of SNO-HDAC2”. Besides, in the test on HDAC2 [2] (cigarette smoke-exposed mice), the “GSH levels in lungs” value is “increased GSH levels”, the “HDAC2 enzymatic activity in lungs” value is “significant increase”, the “HDAC2 protein in lungs” value is recorded as “significant increase” and the “total HDAC enzymatic activity in lungs” value was “significant increase”. Also, in test [3] (COPD alveolar macrophages, compared to vehicle, 4 h with bacteria), the “clearance of nontypeable Haemophilus influenzae (decrease in CFU in culture medium)” value is listed as 40-95%. For the same molecule, the “bactericidal activity towards nontypeable Haemophilus influenzae” value in test [3] (cell-free medium with sulforaphane alone) is “no bactericidal activity”. Also, the “elastase activity in cell free media” value with elastase is recorded as “inhibition of elastase activity”. The “secretory levels of active MMP9” value in the test with MMP9 is on record as “significantly reduced”. The “levels of S-nitrosylated MMP9” value with MMP9 (biotin-switch assay) was “significantly reduced”. Moreover, the “surface expression of MARCO protein” value in the test on MARCO (COPD alveolar macrophages, flow cytometry, compared to vehicle, p<0.001) is on record as 2- to 5 fold. Further, the “expression of MARCO mRNA” value in the test with MARCO (alveolar macrophages transfected with Nrf2-siRNA, compared to control ssRNA) is “failed to upregulate the expression of MARCO mRNA”. The “Nrf2-regulated target genes (NQO1 & GPX2) mRNA” value in the test on Nrf2 is “upregulation of Nrf2-regulated targets genes”. In the test on Nrf2 (flow cytometry, vs vehicle), the Nrf2 protein levels result is on record as “elevated levels of Nrf2 protein”. Further, the “SLPI levels in cell free media” value in [4] is given as “greater levels of SLPI”. For the same molecule, in the test on Pseudomonas aeruginosa, the “bacterial phagocytic ability and clearance” value was “increased bacterial phagocytic ability and clearance”.
